Here are results for 3 compounds from US20040258620A1, “(Ethylene)-( propylene)-triaminepentaacetic acid derivatives, process for their production, and their use for the production of pharmaceutical agents” (priority 2001, published 2004).

Series [1] is described as follows: Simultaneous analysis of 17O NMR, EPR and NMRD data. An excerpt: The ^17O NMR, NMRD and EPR experimental data (points) and the fitted curves (lines) as obtained in a simultaneous analysis, according to the method of Powell et al., J. Am. Chem. Soc.
For series [2] the following is noted: IUPAC Stability constants. Academic Software and K. J. Powell, 1999; cited from earlier work.
For series [3] the following is noted: IUPAC Stability constants. Academic Software and K. J. Powell, 1999; cited from earlier work. The source holds these as a separate data set.
For series [4] the following is noted: IUPAC Stability constants. Academic Software and K. J. Powell, 1999; cited from earlier work. This is another data set of the same source.
For series [5] the following is noted: cited from earlier work.
Where [6] appears, read: Gd(III) complex of the ligand, water exchange.

In the case of `O=C(O)CN(CCN(CC(=O)O)CC(=O)O)CCN(CC(=O)O)CC(=O)O` [DTPA, diethylenetriamine-pentaacetic acid, reference compound], in series [1] (Gd(III) complex of the ligand), the A/ħ is given as −3.8 ± 0.2 10^6 rad s^−1, the Ev was found to be 1.6 ± 1.8 kJ/mol, the “Δ^2” value was 0.46 ± 0.02 10^20 s^−1 and the τr worked out at 58 ± 11 ps. This compound also returned a τy in series [1] (Gd(III) complex of the ligand) of 25 ± 1 ps. In addition, in series [1] (setting [6]), the “ΔH^‡” value amounted to 51.6 ± 1.4 kJ/mol and the “ΔS^‡” value stood at 53.0 ± 4.7 J mol^−1K^−1. The “kex^298” value in series [1] (Gd(III) complex of the ligand, water exchange rate) is reported as 3.3 ± 0.2 10^6 s^−1. The compound also came in with an Er in series [1] (not told) of 17.3 ± 0.8 kJ/mol. In addition, in series [2], the logKGdHL is given as 1.80 and the logKGdL is 22.50. For the same compound, in series [3], the logKZnHL is recorded as 3.0 and the logKZnL was 18.3. In series [4], the logKCaHL is reported as 6.42 and the logKCaL was 10.89.

Take `O=C([O-])CN(CCCN(CC(=O)[O-])CC(=O)[O-])CCN(CC(=O)[O-])CC(=O)[O-].[Gd+3]` [Gd(III)(EPTPA), Gd(III) complex of 3,6,10-tri(carboxymethly)-3,6,10-triazadodecanedioic acid]: the “thermodynamic stability constant, logo” value in series [5] (determined by potentiometry (Wang et al, Dalton, 1998)) is reported as 22.77.

`O=C([O-])CN1CCCN(CC(=O)[O-])CCN(CC(=O)[O-])CCN(CC(=O)[O-])CC1.[Gd+3]` [Gd(III)(TRITA)]: the “thermodynamic stability constant, logβ” value in series [5] (determined by potentiometry [Clarke and Martell, Inorg. Chim, Acta, 1991]) is on record as 19.2.
